Source: patent US20020025925A1, “Combination therapy” (priority 1996, published 2002)

Experiments:
[1] = test system: rat adjuvant-induced arthritis; test: Rat adjuvant-induced arthritis model; type: in vivo
Method: Mean of 10 readings was recorded.
Drugs were formulated fresh for each administration.

[2] = Ex vivo bioassay of blood concentration after oral administration; design: species or system rat; conditions: 10 mg/kg oral, suspension in PBS/Tween, +/- CyA 0.3 mg/kg, 0.5-24 hrs, n=6
Method: Compound 1 (10 mg/kg)±CyA (0.3 mg/kg) (in PBS/0.1% Tween 80™] was administered to healthy male Lewis rats (as above). Blood samples (0.5 ml into a syringe containing 0.1 ml acid citrate dextroset as anticoagulant) were removed from the ventrcolateral tail vein of the halothane anaestetised rat at t=prebleed, 0.5, 1, 2, 6 and 24 hrs. 3 mls methanol was added to each blood sample, mixed and centrifuged at 3000 r.p.m. for 15 minutes (using Beckman GPKR centrifuge). 2.0 ml of the methanol supernatant was removed and evaporated dry. The pellet was redisolved in 200 μl DMSO (dimethylsulphoxide). An aliquot of the solubilised pellet was assayed against fibroblast collagenase using ^14C collagen as substrate, as follows:
Samples were incubated overnight at 37° C. and undigested substrate removed by centrifugation at 11,600 r.p.m. for 15 mins (using Heraeus Biofuge 15). 200 μl of supernatant was tested by liquid scintillation spectrophotometry.
A calibration curve for the test compound of interest was run alongside the blood samples. The concentration of the test compound in the blood was then calculated from the calibration curve.

SMILES: CNC(=O)[C@H](Cc1ccccc1)NC(=O)[C@H](CC(C)C)[C@H](CSc1cccs1)C(=O)NO [Compound 2, [4-(N-Hydroxyamino)-2R-isobutyl-3S-(thiophenylthiomethyl)succinyl]-L-phenylalanine-N-methylamide]
- synergy with cyclosporin A ([1]; Compound 2 5 mg/kg ip, bid with cyclosporin A 0.3 mg/kg ip, bid): act in synergy

SMILES: CCC[C@H](C(=O)NO)[C@@H](CC(C)C)C(=O)N[C@H](C(=O)NC)C(C)(C)C [Compound 1, 3R-(2,2-Dimethyl-1S-methylcarbamoyl-propylcarbamoyl)-5-methyl-2S-2-propyl-hexanohydroxamic acid]
- effect on arthritis ([1]; Compound 1 10 mg/ml (so in the source), po, bid, days 10-20): very little or no effect
- reducing the paw volume (swelling) ([1]; Compound 1 at doses at or below 10 mg/kg, po, bid (data not shown)): ineffective
- blood concentration of Compound 1 with versus without CyA [2]: equivalent
